From the NIST ThermoML archive (doi:10.1021/je400149j)

Assays:
[1] = Crystal; Derived from relative static permittivity measurements of the liquid and solid states
[2] = relative permittivity at zero frequency (dimensionless); details: 101 kPa, Liquid, impedance/gain phase analyzer
[3] = relative permittivity at zero frequency (dimensionless); xn = mol fraction of the nth substance listed; details: 101 kPa, Liquid, impedance/gain phase analyzer, x2 = 0

C[S+](C)[O-] [dimethyl sulfoxide]
Details | Normal melting temperature [°C]
[1] | 18.1

[2]
Details | relative permittivity at zero frequency
291.15 K | 47.15
293.15 K | 47.09
295.15 K | 46.84
297.15 K | 46.64
299.15 K | 46.39
301.15 K | 46.18
303.15 K | 45.94
305.15 K | 45.63
307.15 K | 45.39
309.15 K | 45.14
311.15 K | 44.88
313.15 K | 44.64
315.15 K | 44.34
317.15 K | 44.11
319.15 K | 43.87
321.15 K | 43.58
323.15 K | 43.31
325.15 K | 43.07
327.15 K | 42.78
329.15 K | 42.56
331.15 K | 42.27
333.15 K | 42

O [water]
Details | Normal melting temperature [°C]
[1] | 0.1

[2]
Details | relative permittivity at zero frequency
273.15 K | 87
275.15 K | 86.36
277.15 K | 85.67
279.15 K | 84.84
281.15 K | 84.25
283.15 K | 83.37
285.15 K | 82.73
287.15 K | 82.02
289.15 K | 81.33
291.15 K | 80.65
293.15 K | 79.98
295.15 K | 79.32
297.15 K | 78.42
299.15 K | 77.85
301.15 K | 77.29
303.15 K | 76.61
305.15 K | 75.95
307.15 K | 75.3
309.15 K | 74.65
311.15 K | 73.97
313.15 K | 73.29
315.15 K | 72.68
317.15 K | 72.09
319.15 K | 71.44
321.15 K | 70.76
323.15 K | 70.14
325.15 K | 69.54
327.15 K | 68.94
329.15 K | 68.3
331.15 K | 67.68
333.15 K | 67.07

O [water] + C[S+](C)[O-]
[3]
Details | relative permittivity at zero frequency
273.15 K | 87
275.15 K | 86.36
277.15 K | 85.67
279.15 K | 84.84
281.15 K | 84.25
283.15 K | 83.37
285.15 K | 82.73
287.15 K | 82.02
289.15 K | 81.33
291.15 K | 80.65
293.15 K | 79.98
295.15 K | 79.32
297.15 K | 78.42
299.15 K | 77.85
301.15 K | 77.29
303.15 K | 76.61
305.15 K | 75.95
307.15 K | 75.3
309.15 K | 74.65
311.15 K | 73.97
313.15 K | 73.29
315.15 K | 72.68
317.15 K | 72.09
319.15 K | 71.44
321.15 K | 70.76
323.15 K | 70.14
325.15 K | 69.54
327.15 K | 68.94
329.15 K | 68.3
331.15 K | 67.68
333.15 K | 67.07
